Structures are written as SMILES. Structures can show the parent of a compound that is named as a salt. Where two headings read alike, the source gives them in different places.

This note sets out measurements from patent US4656178A (priority 1985, dated 1987).

Series [1] concerns aconitine arrhythmia. Format: in vivo, rats. Conditions: for efficacy against developing aconitine arrhythmia: similar conditions, dose not stated. On the procedure: (§1) The atrioventricular arrhythmia caused by aconitine is one of the most reliable models for forecasting the efficiency of the antiarrhythmic action of the novel preparation in clinics. The experiments were conducted on both narcotized and non-narcotized animals. The preparation was administered per os, intramuscularly, intraperitoneally and intravenously 5 to 15 minutes prior to or 3-5 minutes after the administration of aconitine.
The antiarrhythmic activity of the pharmaceutical composition according to the present invention upon administration thereof against the background of a developing aconitine arrhythmia (therapeutic effect) was studied on 110 narcotized rats. The preparation was intravenously administered at intervals of 3-6 minutes against the background of the originated arrhythmia.

The subject of series [2] is aconitine arrhythmia. As to the kind of experiment: animal or person. Format: in vivo, rats. Conditions: for perdition of narcotized rats prior to administration of aconitine: doses of 20 mg/kg and more; for duration of prevention of aconitine arrhythmia: doses of 5-10 mg/kg; for antiarrhythmic index (LD50/ED50): prophylactic effect, aconitine arrhythmia. On the procedure: The assessment of the antiarrhythmic activity of the preparation was effected in acute and chronical experiments on rats, rabbits, cats and dogs. Various experimental models of arrhythmia were also used.
as §1
In doses of 0.2-0.5 mg/kg the preparation of this invention prevents the appearance of aconitine arrhythmia in 100% of the rats. […] Under similar experimental conditions a preliminary administration of novocainamide in the dose of 60 mg/kg intravenously produced an antiarrhythmic effect in 50% of the animals.

Series [3] deals with cardiotoxic effect of the preparation. Briefly: sodium bicarbonate at cardiotoxic effect of the preparation in dogs.
For series [4], the system named is cardiac conductive system. Format: in vivo, narcotized rats, cats, intact rabbits and dogs. As to conditions: for rhythm of cardiac contractions: high doses. The source says:
To investigate the character of the effect produced on the functions of the cardiac conductive system by the preparation according to the present invention, the ECG changes appearing in narcotized rats, cats, intact rabbits and dogs under the action of the preparation of this invention were studied. […] The effect of the preparation is retained for a long time.

Series [5] in a line: infiltration anesthesia in rabbits (intracutaneous). Format: in vivo. Conditions: 0.5% solution. On the procedure:
The local anesthetic effect of the preparation was studied on 14 intact rabbits. […] The results of the experiments on determination of the ability of the preparation to cause infiltration anesthesia have shown that 10-15 minutes after intracutaneous administration, to rabbits, of 0.01-0.05% and 0.1% solutions of the preparation anesthesia occurs which is characterized by an increased threshold of a pain irritation; the duration of the effect is 20 to 48 hours. Under the same conditions of the experiment, the local anesthetic effect of a 0.5% solution of novocaine lasts for 90 minutes on the average.

The test system of series [6] is arrhythmia caused by electrical irritation. As to the kind of experiment: arrhythmia caused by electrical irritation of the right auricle and apex of the left ventricle. Format: in vivo, dogs and cats. As to conditions: for onset of antiarrhythmic effect: after intravenous administration; for bradycardia / reduction of arterial pressure: all tested doses.
The test system of series [7] is cardiac arrhythmia induced by barium chloride. As to the kind of experiment: cardiac arrhythmia induced by barium chloride. Format: in vivo, narcotized rats and intact rabbits. As for the experimental part: The study of the antiarrhythmic activity of the preparation according to the present invention on a model of cardiac arrhythmia induced by barium chloride was carried out on 56 narcotized rats and 16 intact rabbits. The preparation of the present invention in the dose of 0.1 mg/kg injected 10 minutes prior to administration of barium prevented the development of arrhythmia in 86.6% of the animals.

In series [8] the test system is cardiac arrhythmia caused by ligation of the descending branch of the left coronary artery. As to the kind of experiment: cardiac arrhythmia caused by ligation of the descending branch of the left coronary artery (Harris method) in dogs. Format: in vivo. As for the experimental part: The effect of the preparation according to the present invention on the cardiac arrhythmia caused by ligation of the descending branch of the left coronary artery by the Harris method was studied in experiments on dogs. The preparation according to the present invention was intravenously administered on the first and second post-operative days. Preliminarily, prior to every experiment 30 to 45 minutes before the administration of the preparation the background changes of the dogs' electrocardiogram (ECG) were recorded. […] In 40% thereof a full suppression of ectopic contractions was noticed for 3-3.5 hours, whereafter arrhythmia appeared with the intensity thereof not reaching the initial background during 7 hours.

For the next series, the system named is frog's heart. Briefly: amplitude of cardiac contractions of isolated frog's heart (Schtraube). The source says:
To find out a negative inotropic effect on the heart tissue, two series of experiments have been carried out:
(1) the study of the effect of the preparation of this invention on the amplitude of the cardiac contractions of a frog's heart isolated according to Schtraube;

`CC(C)NCC(O)COc1cccc2ccccc12` (stereo not drawn) [obzidan, propranolol]: in the series with aconitine arrhythmia [1], the “efficacy against developing aconitine arrhythmia” value is given as “inefficient”. For the same compound, in the series with aconitine arrhythmia [2] (5 mg/kg), the “animals in which arrhythmia was developed (after retardation)” value came out at 60%. Moreover, in the series with aconitine arrhythmia [2] (5 mg/kg, in all test rats), the “retardation of the time of appearance of aconitine arrhythmia” value was 5 to 8 min.

Consider `O=C(O)O` [sodium bicarbonate], for which the “effect on ECG changes caused by toxic doses of the preparation” value in [3] (4% solution, 100 to 200 ml) is “equalizes distinctly pronounced electrocardiographic changes”. Moreover, the “effect on reduced arterial pressure in overdosing of the preparation” value in [3] (infusion of sodium bicarbonate) is reported as “levelled”. The “time to equalization of ECG changes caused by toxic doses of the preparation” value in series [3] (intravenous infusion of 4% solution, 100 to 200 ml, after beginning of infusion) was 15 to 30 min. For the same compound, the “effect on the inhibition of conductivity by the preparation” value in series [4] (in vivo) was “diminishes the inhibiting effect of the preparation on conductivity”.

In the case of `CCN(CC)CC(=O)Nc1c(C)cccc1C` [lidocaine], the “duration of arrhythmia-arresting effect” value in the series on aconitine arrhythmia [1] (5-10 mg/kg, followed by development of arrhythmia) fell in the range of 0.5 to 3 min. Besides, in the series on aconitine arrhythmia [2], the “perdition of narcotized rats prior to administration of aconitine” value is listed as “perdition of a portion of the narcotized rats” and the “duration of prevention of aconitine arrhythmia” value fell in the range of 3 to 5 min.

As to `CCN(CC)CCOC(=O)c1ccc(N)cc1` [novocaine, reference compound], the “duration of local anesthetic effect (average)” value in series [5] was around 90 min.

`CCN(CC)CCNC(=O)c1ccc(N)cc1` [novocainamide, β-diethylaminoethylamide hydrochloride of p-aminobenzoic acid]: the “animals with antiarrhythmic effect” value in series [6] (10 mg/kg) was found to be 40%; in the series on aconitine arrhythmia [1] (40 mg/kg), 83.3%; with aconitine arrhythmia [2] (60 mg/kg intravenously, preliminary administration), 50%. Moreover, the “duration of antiarrhythmic effect” value lay within 2 to 5 min in [6] (10 mg/kg), 20 to 25 min in series [6] (20-30 mg/kg), 4 to 7 min in [8] (40-50 mg/kg) and 30 to 60 min in series [8] (70-80 mg/kg). The “onset of antiarrhythmic effect” value in series [6] lay within 1.0 to 1.5 min. The bradycardia entry in series [6] was “bradycardia”. In addition, the “reduction of arterial pressure” value in series [6] is reported as 20-70 mm Hg. Moreover, the “rhythm of cardiac contractions” value in series [4] was “sharp disturbances of the rhythm of cardiac contractions”. Moreover, the “antiarrhythmic activity, barium chloride model” value in series [7] (comparison with preparation and quinidine) is listed as “weakest antiarrhythmic activity”. Further, the “rats with restored normal sinus rhythm” value with aconitine arrhythmia [1] (20 mg/kg) is 3 rats out of 6. Also, the “duration of restored normal sinus rhythm (average)” value in the series with aconitine arrhythmia [1] (20 mg/kg, then stable arrhythmia appeared again) is around 10 min. In addition, the “rats with effect only during the first 20 minutes, then stable arrhythmia reappeared” value in the series with aconitine arrhythmia [1] (40 mg/kg) was found to be 50%. For the same compound, the “duration of effect, after which stable arrhythmia reappeared” value in the series with aconitine arrhythmia [1] (40 mg/kg, in 50% of the rats) turned out to be 20 min. The “antiarrhythmic index (LD50/ED50)” value in the series on aconitine arrhythmia [1] (against background of developing aconitine arrhythmia) is on record as 6.9; in the series with aconitine arrhythmia [2] it was 2.3. Moreover, the “dose producing the antiarrhythmic effect” value in [8] (dog, in vivo) is 40 to 50 mg/kg.

On to `C=C[C@H]1C[N@@]2CC[C@H]1C[C@@H]2[C@@H](O)c1ccnc2ccc(OC)cc12` [quinidine], for which, in series [6] (10 mg/kg), the “animals with antiarrhythmic effect” value turned out to be 30% and the “duration of antiarrhythmic effect” value was in the range of 2 to 5 min. Besides, the “duration of antiarrhythmic effect” value in series [6] (20-30 mg/kg) was in the range of 20 to 25 min. Besides, in series [6], the “onset of antiarrhythmic effect” value is 2 to 3 min, the bradycardia entry was “bradycardia” and the “reduction of arterial pressure” value is 20-70 mm Hg. Also, the “rhythm of cardiac contractions” value in series [4] is “sharp disturbances of the rhythm of cardiac contractions”. Also, the “antiarrhythmic effect relative to the preparation” value in series [7] (10 mg/kg) is “approximately corresponded to the antiarrhythmic effect produced by the preparation according to the present invention in the dose of 0.1 mg/kg”. Also, the “antiarrhythmic activity against developing aconitine arrhythmia” value with aconitine arrhythmia [1] (doses of 2.5, 5, 10, 20 mg/kg) is listed as “no antiarrhythmic activity”. Also, the “negative inotropic effect compared with the preparation” value in the series with frog's heart is recorded as “considerably superior to the preparation of the present invention”. In the series with frog's heart (concentration of 10^-4 to 3.10^-4 g/ml), the “effect on isolated heart” value is “along with a sharp inhibition of the amplitude of cardiac contractions, arrhythmia”. Moreover, the “animals with antiarrhythmic effect” value with aconitine arrhythmia [2] (20 mg/kg) is on record as 50%. Besides, the “antiarrhythmic index (LD50/ED50)” value with aconitine arrhythmia [2] was found to be 2.75. Besides, the “effect on cardiac arrhythmia” value in series [8] (5-10 mg/kg) is reported as “weak effect”.

Consider `CCN(CC)CC(=O)Nc1c(C)cc(C)cc1C` [trimecaine], for which the “efficacy against developing aconitine arrhythmia” value in the series on aconitine arrhythmia [1] is given as “inefficient”. In the series on aconitine arrhythmia [2], the “perdition of narcotized rats prior to administration of aconitine” value is “perdition of a portion of the narcotized rats” and the “duration of prevention of aconitine arrhythmia” value was in the range of 3 to 5 min.

As for `COc1ccc(CCN(C)CCCC(C#N)(c2ccc(OC)c(OC)c2)C(C)C)cc1OC` (stereo not drawn) [isoptin], the “prevention of aconitine arrhythmia” value in the series with aconitine arrhythmia [2] (doses of 0.1-2.5 mg/kg) is “did not prevent the development of aconitine arrhythmia”.
